Measured values from patent US20150079071A1, “NON-CATALYTIC DOMAIN TARGETS IN MATRIX METALLOPROTEASE PROTEINS FOR CANCER THERAPIES” (THE REGENTS OF THE UNIVERSITY OF CALIFORNIA, priority 2012, published 2015).
Read-outs that look alike come from different tables or passages of the source.

Assays:
Assay type in all cases: cell-based, mouse
SCp2 cells = assay: Invasion assay in Boyden chambers; settings: for invasion of FL and EA-SCp2 cells: SCp2 overexpressing MMP3 constructs containing the hemopexin domain; for invasion of dPEX-SCp2 or control cells: SCp2 with hemopexin-deleted MMP3 or control vector
Method: Cell culture inserts (8 μm, 24-well format; BD Biosciences) were evenly coated with 20 μL of diluted (1:5 in DMEM/F-12 medium) Matrigel (BD Biosciences). Cells (1×10^5) in 200 μL of DMEM/F-12 medium or different CM (as indicated in each experiment) were added to the upper compartment of the chamber. The lower compartment of the chamber was filled with 300 μL of medium containing 10% FBS as a chemoattractant. After 48 h of incubation at 37° C., the top side of the insert was cleared from noninvasive cells with a cotton swab and washed with serum-free DMEM/F-12. The remaining (invasive) cells at the lower surface of the filter were fixed and stained with a solution of Coomassie Blue 0.125% in methanol:acetic acid:H2O (45%:10%:45% [v/v/v]) for 15 min. Invasive cells were scored by counting 10×20 magnification fields per filter with a Zeiss Imager Z1 microscope using a 20× objective. Mouse embryonic fibroblast NIH/3T3 cells were routinely included as a positive control. Results are expressed as mean±SD from three independent experiments.

Erk = assay: Immunoblot of phospho-Erk / total Erk (MAPK activity); settings: EpH4 cells in CL-1 gels
Method: Samples were lysed using modified RIPA buffer (50 mM HEPES pH 7.4, 150 mM NaCl, 10% glycerol, 1% Triton X-100, 10 mM sodium pyrophosphate containing 1.5 mM MgCl2, 1 mM EGTA, 1% sodium deoxycholate, 0.25 mM Na3VO4, 100 mM NaF and proteinase inhibitor cocktail (EMD Millipore, Billerica, USA)). Protein concentration was determined using the BCA Protein Assay kit (Thermo Scientific, Waltham, USA), following the manufacturer's instructions. Protein samples (10 μg) were mixed with Laemmeli sample buffer and heated at 95° C. for 5 minutes. Samples were loaded into a pre-cast 4-20% tris-glycine polyacrylamide gel (Invitrogen) using the NOVEX system (Invitrogen). Resolved proteins were transferred to nitrocellulose membrane (Whatman, Maidstone, UK) followed by blocking in PBS, 0.05% Tween-20 with 5% w/v non-fat dry milk for 1 hour at room temperature (RT). Membranes were incubated overnight at 4° C. in 5% BSA, 0.1% Tween-20 in PBS containing antibodies that recognize either phosphorylated Erk1/2, total Erk1/2 (Cell Signaling). […] Primary antibodies were detected with HRP conjugated anti-IgG (Thermo) and the Pierce SuperSignal detection kit. Chemiluminescence ignal was captured with a FluorChem 8900 analysis system (Alpha Innotech, San Leandro, USA).

[1] = test system: primary mammary organoids and EpH4 cells; assay: Branching morphogenesis (invasion/branching) assay in collagen-1 gels; settings: 9 nM FGF2, inhibitors 40 μM; for invasion/branching in sparse CL-1 gels: sparse CL-1 1 mg/ml
Method: Single cells were removed by centrifugation and the clusters were then washed three times with DMEM/F12. Cell clusters and primary organoids were embedded in collagen-1 gels. Briefly, acid-extracted type I collagen (Koken, Tokyo, Japan) was mixed gently on ice (8 vol) with 1 vol of 10×DMEM/F12, then pH is adjusted to 7.4 with 0.1N NaOH. Collagen solution was added into each well of a 48-well plate, which was then incubated at 37° C. to allow gelation. EpH4 cell clusters or primary organoids were suspended in collagen at 3 mg/ml or 1 mg/ml, poured onto the basal collagen layer and placed at 37° C. for gelation. After gelation of the collagen, growth medium containing 9 nM FGF2 was added to the wells. Branching morphogenesis was assessed using a Nikon Diaphot 300 microscope and clusters were scored as positive when displaying three or more branches of length at least half the diameter of the central cell cluster.

Mmp14 and Itgb1 = assay: Immunoblot of Mmp14 and Itgb1 levels in EpH4 cells
Method: Samples were lysed using modified RIPA buffer (50 mM HEPES pH 7.4, 150 mM NaCl, 10% glycerol, 1% Triton X-100, 10 mM sodium pyrophosphate containing 1.5 mM MgCl2, 1 mM EGTA, 1% sodium deoxycholate, 0.25 mM Na3VO4, 100 mM NaF and proteinase inhibitor cocktail (EMD Millipore, Billerica, USA)). Protein concentration was determined using the BCA Protein Assay kit (Thermo Scientific, Waltham, USA), following the manufacturer's instructions. Protein samples (10 μg) were mixed with Laemmeli sample buffer and heated at 95° C. for 5 minutes. Samples were loaded into a pre-cast 4-20% tris-glycine polyacrylamide gel (Invitrogen) using the NOVEX system (Invitrogen). Resolved proteins were transferred to nitrocellulose membrane (Whatman, Maidstone, UK) followed by blocking in PBS, 0.05% Tween-20 with 5% w/v non-fat dry milk for 1 hour at room temperature (RT). Membranes were incubated overnight at 4° C. in 5% BSA, 0.1% Tween-20 in PBS containing antibodies that recognize either phosphorylated Erk1/2, total Erk1/2 (Cell Signaling). Anti-Mmp14 (Abcam, Cambridge, USA), anti-Itgb1 (Santa Cruz Biotechnology, Santa Cruz, USA), anti-Itgb1 p788/789 (Abcam), anti-LAM A/C (Santa Cruz Biotechnology), anti-Actin (Abcam), anti-FLAG (Sigma) and rabbit IgG (Sigma) antibodies were used for immunoblotting. Primary antibodies were detected with HRP conjugated anti-IgG (Thermo) and the Pierce SuperSignal detection kit. Chemiluminescence ignal was captured with a FluorChem 8900 analysis system (Alpha Innotech, San Leandro, USA).

[2] = test system: primary mammary organoids; assay: Branching morphogenesis assay of primary mammary organoids in 3D Col-1 gels
Method: Primary organoids or clustered EpH4 cells were embedded in 3D Col-1 gels as previously published (Simian et al. 2001; Mori et al. 2013). In brief, acid-solubilized Col-1 solution was mixed gently on ice with 1 vol of 10×DMEM/F-12 (pH adjusted to 7.4 with 0.1 M NaOH), and the concentration was adjusted to 3 mg/mL with DMEM/F-12. A basal layer of 80 μL of Col-1 was poured into each well of an eight-well chambered coverglass (155409, Thermo Scientific) and allowed to gel for 5 min at 37° C. A second layer of 200 μL of Col-1 containing 150 organoids or EpH4 clusters was added to each well and placed immediately at 37° C. After gelation, 400 μL of chemically defined medium (DMEM/F-12 containing 1% insulin/transferrin/selenium, 1% penicilin/streptomycin) with 9 nM TGFα (Sigma) or 9 nM bFGF (Sigma) was added to each well (unless stated otherwise) and replaced every other day.
After 3 d of culture, gels were fixed with 4% formalin for 30 min and stained with phalloidin and DAPI for 1 h. Structures were imaged with an upright Zeiss LSM710 using a 0.8 NA 20× air objective. […] The number of extending processes and their average length were determined using the Imaris program (Bitplane). […] Fifty structures were counted per condition, and the experiments were executed at least three times.

CCc1cc(-c2n[nH]c(C)c2-c2ccc3c(c2)OCCO3)c(O)cc1O [CCT018159]
invasion of FL and EA-SCp2 cells (SCp2 cells): reduced invasion
invasion of dPEX-SCp2 or control cells (SCp2 cells): no significant effect

CNC(=O)[C@H](Cc1c[nH]c2ccccc12)NC(=O)[C@@H](CC(=O)NO)CC(C)C [GM6001]
MAPK activation (pErk/total Erk) (Erk): did not change
invasion/branching in dense CL-1 gels ([1]; dense CL-1 3 mg/ml): completely abrogated
invasion/branching in sparse CL-1 gels [1]: still invaded

COc1cccc(-c2cc(=O)c3ccccc3o2)c1N [PD98059]
Itgb1 level (Mmp14 and Itgb1): reduced
Mmp14 level (Mmp14 and Itgb1): reduced
Itgb1 level (Mmp14 and Itgb1; listed as PD95089): reduced expression
Mmp14 level (Mmp14 and Itgb1; listed as PD95089): reduced expression
invasion/branching in sparse CL-1 gels [1]: reduced invasion/branching

recombinant HSP90β: recombinant HSP90β protein purchased from Calbiochem/EMD Millipore
invasion of FL and EA-SCp2 cells (SCp2 cells): enhanced invasion significantly
invasion of dPEX-SCp2 or control cells (SCp2 cells): did not raise the invasive potential
invasion and branching of mammary organoids ([2]; 3 mg/mL Col-1, 3 d, TGFα): most exuberant branched structures
spatial network per organoid ([2]; organoids overexpressing FL MMP3, 3 mg/mL Col-1, 3 d): longest spatial network observed so far
